From US12391671B2, “Allosteric EGFR inhibitors and methods of use thereof” (Dana-Farber Cancer Institute, Inc., priority 2019, dated 2025) come the findings set out here.

The subject of assay [1] is EGFR mutant L858R/T790M Ba/F3 cells. The assay can be described thus: Ba/F3 cell proliferation model (Cell Titer Glo), EGFR L858R/T790M. The format is cell-based, murine. As to conditions: 72 hours. Summed up:
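Retrovirally transduced Ba/F3 cells exposed 72 h to compound alone or with 1 μg/mL cetuximab, triplicate points, repeated at least three times. Viability by Cell Titer Glo luminescence (ATP); curves fitted by non-linear sigmoidal dose-response regression.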
For orientation: Cellular ATP, detected with luciferase, serves as a proxy for viable cell number.

Assay [2] concerns EGFR mutant L858R Ba/F3 cells. The assay can be described thus: Ba/F3 cell proliferation model (Cell Titer Glo), EGFR L858R. The format is cell-based, murine. As to conditions: Mus musculus, BaF3; single agent, 72 hours; read-out: Cell IC50 BaF3 EGFR L858R. The text has this:
Example 26: Ba/F3 Cell Proliferation Models
The EGFR mutant L858R and L858R/T790M Ba/F3 cells have been previously described (Zhou, W., et al. Nature 462, 2009, 1070-1074). All cell lines were maintained in RPM 1640 (Cellgro; Mediatech Inc., Herndon. CA) supplemented with 10% FBS, 100 units/mL penicillin, 100 units/mL streptomycin. The EGFR I941R mutation was introduced via site directed mutagenesis using the Quick Change Site-Directed Mutagenesis kit (Stratagene; La Jolla, CA) according to the manufacturer's instructions. All constructs were confirmed by DNA sequencing. The constructs were shuttled into the retroviral vector JP1540 using the Cre-recombination system (Agilent Technologies, Santa Clara, CA). Ba/F3 cells were then infected with retrovirus per standard protocols, as described previously (Zhou, et al, Nature 2009). Stable clones were obtained by selection in puromycin (2 μg/ml).
Growth and inhibition of growth was assessed by the Cell Titer Glo® assay (Promega, Madison, WI) and was performed according to the manufacturer's instructions. The Cell Titer Glo® assay is a luminescence-based method used to determine the number of viable cells based on quantitation of the ATP present, which is directly proportional to the amount of metabolically active cells present. Ba/F3 cells of different EGFR genotypes were exposed to compounds as a single agent or in combination with 1 μg/mL cetuximab for 72 hours and the number of cells used per experiment was determined empirically as has been previously established (Zhou, et al., Nature 2009). All experimental points were set up in triplicates in 384-well plates and all experiments were repeated at least three times. […] The curves were fitted using a non-linear regression model with a sigmoidal dose response.

In another assay the target is EGFR L858R/T790M (Homo sapiens (Human), UniProt P00533, L858R/T790M). The assay can be described thus: HTRF-based EGFR biochemical assay (L858R/T790M). As to conditions: 100 μM ATP, enzyme 0.02 nM. Summed up: (§1)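 Mutant EGFR (L858R 0.1 nM, L858R/T790M 0.02 nM) preincubated 30 min with compounds at room temperature in HEPES pH 7.0 buffer with Mg2+/Mn2+, then reacted 20 min with 1 μM biotinylated tyrosine kinase peptide and 100 μM ATP. Phosphorylation read by HTRF (Eu-cryptate anti-phosphotyrosine/streptavidin-XL665, 665/620 nm) after EDTA quench.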
Background: In TR-FRET formats the signal depends on donor and acceptor labels being close together.

In a further assay the target is EGFR L858R (Homo sapiens (Human), UniProt P00533, L858R). The assay is described as follows: HTRF-based EGFR biochemical assay (L858R). As to conditions: 100 μM ATP, enzyme 0.1 nM. Summed up:
as §1

[3] abbreviates: Mus musculus, BaF3, single agent, read-out: Cell IC50 BaF3 EGFR L858R/T790M.
Setting [4] is: in combination with 1 μg/mL cetuximab, read-out: Cell IC50 BaF3 EGFR L858R/T790M (+cetux.).

SMILES strings stand for the structures. Where a name gives a salt, the structure may show the parent alone. Read-outs that look alike come from different tables or passages of the source.

EGFR L858R/T790M, sequence (P00533 25-1210 T790M/L858R): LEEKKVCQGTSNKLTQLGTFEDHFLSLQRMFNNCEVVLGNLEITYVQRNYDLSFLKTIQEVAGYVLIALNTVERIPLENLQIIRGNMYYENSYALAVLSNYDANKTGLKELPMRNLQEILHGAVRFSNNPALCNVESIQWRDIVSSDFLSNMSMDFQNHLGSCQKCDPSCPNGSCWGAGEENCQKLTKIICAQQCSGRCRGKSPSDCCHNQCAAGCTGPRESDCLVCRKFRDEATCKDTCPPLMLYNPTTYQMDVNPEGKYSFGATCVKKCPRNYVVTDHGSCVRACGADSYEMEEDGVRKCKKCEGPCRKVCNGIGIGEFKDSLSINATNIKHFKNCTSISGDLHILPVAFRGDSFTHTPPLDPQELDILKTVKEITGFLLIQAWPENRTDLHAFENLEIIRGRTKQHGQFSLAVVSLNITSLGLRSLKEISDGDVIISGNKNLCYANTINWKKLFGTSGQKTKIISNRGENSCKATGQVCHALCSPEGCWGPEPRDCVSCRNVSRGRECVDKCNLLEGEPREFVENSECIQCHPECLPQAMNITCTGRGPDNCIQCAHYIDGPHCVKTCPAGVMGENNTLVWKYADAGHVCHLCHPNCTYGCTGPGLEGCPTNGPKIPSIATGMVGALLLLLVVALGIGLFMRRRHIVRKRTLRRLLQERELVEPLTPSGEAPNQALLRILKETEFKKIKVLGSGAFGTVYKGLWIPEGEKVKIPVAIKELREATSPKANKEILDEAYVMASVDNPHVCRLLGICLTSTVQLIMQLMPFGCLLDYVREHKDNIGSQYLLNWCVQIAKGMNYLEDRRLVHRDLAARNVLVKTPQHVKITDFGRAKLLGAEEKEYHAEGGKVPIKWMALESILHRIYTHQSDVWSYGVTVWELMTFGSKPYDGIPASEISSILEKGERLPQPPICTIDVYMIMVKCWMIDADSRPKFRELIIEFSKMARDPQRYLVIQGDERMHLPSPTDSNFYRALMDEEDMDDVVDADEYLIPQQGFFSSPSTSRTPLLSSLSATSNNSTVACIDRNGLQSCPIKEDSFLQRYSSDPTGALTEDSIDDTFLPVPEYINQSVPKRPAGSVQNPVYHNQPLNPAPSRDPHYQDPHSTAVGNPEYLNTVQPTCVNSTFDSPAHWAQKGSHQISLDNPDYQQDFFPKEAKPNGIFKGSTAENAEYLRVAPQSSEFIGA
EGFR L858R, sequence (P00533 25-1210 L858R): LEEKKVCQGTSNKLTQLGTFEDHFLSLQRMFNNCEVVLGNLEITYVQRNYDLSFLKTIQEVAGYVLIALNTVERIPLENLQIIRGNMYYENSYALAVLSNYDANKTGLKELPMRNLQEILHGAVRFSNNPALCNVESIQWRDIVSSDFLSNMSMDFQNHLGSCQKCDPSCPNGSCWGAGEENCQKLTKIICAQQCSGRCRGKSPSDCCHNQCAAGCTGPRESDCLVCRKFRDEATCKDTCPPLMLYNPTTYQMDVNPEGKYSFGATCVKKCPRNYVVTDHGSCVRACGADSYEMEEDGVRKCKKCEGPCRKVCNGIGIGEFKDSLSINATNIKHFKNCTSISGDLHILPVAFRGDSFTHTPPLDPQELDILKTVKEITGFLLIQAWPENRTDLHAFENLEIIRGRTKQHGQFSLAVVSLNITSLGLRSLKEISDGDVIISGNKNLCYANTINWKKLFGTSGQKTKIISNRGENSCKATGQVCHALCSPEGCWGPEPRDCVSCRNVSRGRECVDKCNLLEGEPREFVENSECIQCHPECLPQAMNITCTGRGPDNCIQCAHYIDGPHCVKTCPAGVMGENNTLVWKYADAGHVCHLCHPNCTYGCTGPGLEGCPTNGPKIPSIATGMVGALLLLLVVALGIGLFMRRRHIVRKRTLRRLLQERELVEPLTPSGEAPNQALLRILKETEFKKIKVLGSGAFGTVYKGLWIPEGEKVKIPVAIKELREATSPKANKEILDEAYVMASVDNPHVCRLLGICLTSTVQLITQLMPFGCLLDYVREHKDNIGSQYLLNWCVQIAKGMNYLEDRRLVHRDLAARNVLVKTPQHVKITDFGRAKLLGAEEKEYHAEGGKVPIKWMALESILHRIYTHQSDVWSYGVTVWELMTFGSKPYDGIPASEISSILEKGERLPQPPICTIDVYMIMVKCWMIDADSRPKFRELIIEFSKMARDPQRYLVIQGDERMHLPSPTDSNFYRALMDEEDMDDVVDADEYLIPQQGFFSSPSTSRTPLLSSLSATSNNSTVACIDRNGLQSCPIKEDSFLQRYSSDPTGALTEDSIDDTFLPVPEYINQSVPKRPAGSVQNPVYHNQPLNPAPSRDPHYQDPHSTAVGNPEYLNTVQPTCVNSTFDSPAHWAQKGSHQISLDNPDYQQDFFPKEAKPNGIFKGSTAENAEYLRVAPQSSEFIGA

Take `Cc1nnc(C(c2cc(F)ccc2O)N2Cc3ccc(-c4ccc(C5CCN(C)CC5)cc4)cc3C2=O)[nH]1` (stereo not drawn) [Compound 089, 2-[(5-fluoro-2-hydroxy-phenyl)-(5-methyl-4H-1,2,4-triazol-3-yl)methyl]-6-[4-(1-methyl-4-piperidyl)phenyl]isoindolin-1-one;hydrochloride]: the IC50 turned out to be 5950 nM in assay [1] (setting [3]) and 4.53 µM in assay [2].
Regarding `Cc1cccc2[nH]c(C(c3cc(F)ccc3O)N3Cc4ccc(-c5ccc(C6CCN(C)CC6)cc5)cc4C3=O)nc12` (stereo not drawn) [Compound 052, 2-[(5-fluoro-2-hydroxy-phenyl)-(4-methyl-1H-benzimidazol-2-yl)methyl]-6-[4-(1-methyl-4-piperidyl)phenyl]isoindolin-1-one; formic acid], the IC50 against EGFR L858R/T790M was 2 nM; against EGFR L858R, 5 nM; in assay [1] (setting [3]), 4180 nM; in assay [1] (setting [4]), 370 nM.
The like results for `COc1cccc2[nH]c(C(c3cc(F)ccc3O)N3Cc4ccc(-c5ccc(C6CCN(C)CC6)cc5)cc4C3=O)nc12` (stereo not drawn) [Compound 051] were, in that order, 1 nM, 10 nM, 3920 nM and 1050 nM.
The corresponding values for `CN1CC(Oc2ccc(-c3ccc4c(c3)C(=O)N(C(c3nc5ccccc5[nH]3)c3cc(F)ccc3O)C4)cc2)C1` (stereo not drawn) [Compound 056, 2-[1H-benzimidazol-2-yl-(5-fluoro-2-hydroxy-phenyl)methyl]-6-[4-(1-methylazetidin-3-yl)oxyphenyl]isoindolin-1-one;dihydrochloride] are 8 nM, 12 nM, 1280 nM and 10 nM.
The corresponding values for `CN1CCC(c2ccc(-c3ccc4ncn(C(c5cccc(F)c5)c5nc6ccccc6[nH]5)c(=O)c4n3)cc2)CC1` (stereo not drawn) [Compound 008, 3-((1H-Benzo[d]imidazol-2-yl)(3-fluorophenyl)methyl)-6-(4-(1-methylpiperidin-4-yl)phenyl)-pyrido[3,2-d]pyrimidin-4(3H)-one 2,2,2-trifluoroacetate] are 5 nM, 42 nM, 5410 nM and 170 nM.
With `COc1ccc2[nH]c(C(c3cc(F)ccc3O)N3Cc4ccc(-c5ccc(C6CCN(C)CC6)cc5)cc4C3=O)nc2c1` (stereo not drawn) [Compound 048, 2-[(5-fluoro-2-hydroxy-phenyl)-(5-methoxy-1H-benzimidazol-2-yl)methyl]-6-[4-(1-methyl-4-piperidyl)phenyl]isoindolin-1-one; formic acid], the IC50 is 4 nM against EGFR L858R/T790M, 35 nM against EGFR L858R, 4760 nM in assay [1] (setting [3]) and 760 nM in assay [1] (setting [4]).
The corresponding values for `CN(C)CCOc1ccc(-c2ccc3c(c2)C(=O)N(C(c2nc4ccccc4[nH]2)c2cc(F)ccc2O)C3)cc1` (stereo not drawn) [Compound 040, 2-[1H-benzimidazol-2-yl-(5-fluoro-2-hydroxy-phenyl)methyl]-6-[4-[2-(dimethyl-amino)ethoxy]phenyl]isoindolin-1-one;hydrochloride] are 2 nM, 7 nM, 1570 nM and 10 nM.
The corresponding values for `CN1CCC(c2ccc(-c3ccc4c(F)cn(C(c5nc6ccccc6[nH]5)c5cc(F)ccc5O)c(=O)c4c3)cc2)CC1` (stereo not drawn) [Compound 054, 2-[1H-benzimidazol-2-yl-(5-fluoro-2-hydroxy-phenyl)-methyl]-4-fluoro-7-[4-(1-methy-4-piperidyl)phenyl]isoquinolin-1-one] are 0.4 nM, 2 nM, 1060 nM and 20 nM.
Regarding `CN1CCC(c2ccc(-c3ccc4ncn(C(c5nc6ccccc6[nH]5)c5cc(F)ccc5O)c(=O)c4c3F)cc2F)CC1` (stereo not drawn) [Compound 007, 3-[1H-benzimidazol-2-yl-(5-fluoro-2-hydroxy-phenyl)methyl]-5-fluoro-6-[3-fluoro-4-(1-methyl-4-piperidyl)phenyl]quinazolin-4-one; hydrochloride], the IC50 was 0.4 nM on EGFR L858R/T790M, 1 nM against EGFR L858R, 520 nM in assay [1] (setting [3]) and 9 nM in assay [1] (setting [4]).
The corresponding values for `CN1CCC(c2ccc(-c3ccc4ncn(C(c5cccc(F)c5)c5nc6ccccc6[nH]5)c(=O)c4c3F)cc2)CC1` (stereo not drawn) [Compound 005, 3-((1H-Benzo[d]imidazol-2-yl)(3-fluorophenyl)methyl)-5-fluoro-6-(4-(1-methylpiperidin-4-yl)phenyl)-quinazolin-4(3H)-one 2,2,2-trifluoroacetate] are 1 nM, 8 nM, 1220 nM and 20 nM.
Consider `CN1CCC(c2ccc(-c3cnc4c(c3)C(=O)N(C(c3nc5ccccc5[nH]3)c3cc(F)ccc3O)C4)cc2)CC1` (stereo not drawn) [Compound 010, 6-[1H-Benzimidazol-2-yl-(5-fluoro-2-hydroxy-phenyl)methyl]-3-[4-(1-methyl-4-piperidyl)phenyl]-7H-pyrrolo[3,4-b]pyridin-5-one], for which the IC50 on EGFR L858R/T790M was found to be 4 nM; at EGFR L858R, 12 nM; in assay [1] (setting [3]) it was 1930 nM; in assay [1] (setting [4]), 20 nM.
Regarding `O=C1c2cc(-c3ccc(C4CCNCC4)cc3)ccc2CN1C(c1nc2ccccc2[nH]1)c1cc(F)ccc1O` (stereo not drawn) [Compound 062, 2-[1H-benzimidazol-2-yl-(5-fluoro-2-hydroxy-phenyl)-methyl]-6-[4-(4-piperidyl)-phenyl]isoindolin-1-one; hydrochloride], the IC50 against EGFR L858R/T790M turned out to be 0.7 nM; at EGFR L858R, 3 nM; in assay [1] (setting [3]), 650 nM; in assay [1] (setting [4]), 20 nM.
The corresponding values for `CN1CCC(c2ccc(-c3ccc4ncn(C(c5ccccc5)c5nc6ccccc6[nH]5)c(=O)c4c3)cc2)CC1` (stereo not drawn) [Compound 002, 3-[1H-Benzimidazol-2-yl(phenyl)methyl]-6-[4-(1-methyl-4-piperidyl)phenyl]quinazolin-4-one] are 4 nM, 17 nM, 4450 nM and 140 nM.
As for `CN1CCC(c2ccc(-c3ccc4c(=O)n(C(c5nc6ccccc6[nH]5)c5cc(F)ccc5O)cc(F)c4c3)cc2)CC1` (stereo not drawn) [Compound 053, 2-[1H-benzimidazol-2-yl-(5-fluoro-2-hydroxy-phenyl)-methyl]-4-fluoro-6-[4-(1-methyl-4-piperidyl)phenyl]isoquinolin-1-one; hydrochloride], the IC50 on EGFR L858R/T790M was determined as 1 nM; at EGFR L858R, 6 nM; in assay [1] (setting [3]), 560 nM; in assay [1] (setting [4]), 5 nM.
The like results for `CN1CCC(c2ccc(-c3ccc4c(c3)C(=O)N(C(c3nc5cccnc5[nH]3)c3n[nH]c5c3CCC5)C4)cc2)CC1` (stereo not drawn) [Compound 031, 2-[1H-Imidazo[4,5-b]pyridin-2-yl(1,4,5,6-tetrahydrocyclopenta[c]pyrazol-3-yl)methyl]-6-[4-(1-methyl-4-piperidy)phenyl]isoindolin-1-one] were, in that order, 8 nM, 45 nM, more than 10000 nM and 370 nM.
The like results for `CN1CCC(c2ccc(-c3ccc4ncn(C(c5ccccc5)c5nc6ccccc6[nH]5)c(=O)c4c3F)cc2)CC1` (stereo not drawn) [Compound 003, 3-((1H-Benzo[d]imidazol-2-yl)(phenyl)methyl)-5-fluoro-6-(4-(1-methylpiperidin-4-yl)phenyl)quinazolin-4(3H)-one 2,2,2-trifluoroacetate] were, in that order, 2 nM, 9 nM, 1400 nM and 50 nM.
Turning to `O=C1c2cc(C#CCN3CCS(=O)(=O)CC3)ccc2CN1C(c1nc2ccccc2[nH]1)c1cc(F)ccc1O` (stereo not drawn) [Compound 013, 2-[1H-benzimidazol-2-yl-(5-fluoro-2-hydroxy-phenyl)methyl]-6-[3-(1,1-dioxo-1,4-thiazinan-4-yl)prop-1-ynyl]isoindolin-1-one; hydrochloride], the IC50 was 33 nM against EGFR L858R/T790M, 22 nM at EGFR L858R, more than 10000 nM in assay [1] (setting [3]) and 260 nM in assay [1] (setting [4]).
